Measurements: patent publication US9175013B2, “Fused aminodihydrothiazine derivatives” (Eisai R&D Management Co., Ltd., priority 2011, dated 2015)

Experiments:
[1] = system: Aβ40; assay: Amyloid detection: Aβ40 in rat brain and CSF after oral dosing (Wako ELISA); type: in vivo, Sprague Dawley rat; conditions: 10 mg/kg p.o.
Method: Male Sprague Dawley rats were acquired from Charles River UK Ltd. (Margate, UK) and housed according to UK Home Office guidelines. Drugs were made up to the appropriate concentrations in 0.5% methyl cellulose. Animals were dosed orally (2 mL/kg) by gavage at the doses outlined in Tables 1 to 4 below. At the time points post-dosing, specified in the Tables 1 to 4 below the animals were administered an i.p. injection of sodium pentobarbitone (approximately 330 mg/kg for terminal anaesthesia). Using a guillotine, the animals were decapitated and trunk blood collected into 15 ml Falcon tubes containing 100 IU heparin. Blood was vortexed followed by centrifugation at 6000 rpm, 4° C. for 5 minutes. Plasma was collected for DMPK and ELISA assays and stored at −80° C. until use. Brains were dissected out and divided along the midline, weighed and stored at −80° C. until further use. Amyloid Detection 100 ml of chilled 0.2% diethyl amine (DEA) in 50 mM NaCl (pH 10) was freshly prepared and 1 ml/25 mg brain tissue was added to each hemisphere (i.e. 40× brain volume). The brains were immediately homogenized using a Polytron PT 1200 for 1.5 minutes and samples left to incubate on ice for one hour after homogenisation. 3 ml of the homogenate was transferred to a polyallomer tube (Beckman #362333) and spun at 133000×g (55,000 rpm) for 45 min at 4° C. The supernatant was then neutralised to pH 8-8.3 by adding 1/10 volume 0.5M Tris/HCl, pH 6.8. The samples can be used fresh or snap frozen on dry-ice and stored at −80° C. until required for analysis The Wako Aβ40 ELISA kit (Code No. 294-62501) uses the monoclonal antibody BNT77, raised against epitope Aβ(11-28) and the monoclonal antibody BA27, which specifically detects the C-terminal portion of Aβ40. This kit is used for the quantitative determination of human or rat Aβ(1-40) and also N-terminally truncated Aβ40 species (Aβ(x-40)) in biological matrices such as tissue culture medium, tissue homogenate, CSF and plasma. For analysis, plasma and brain samples are diluted 1:1 with the standard diluent contained in the kit and CSF samples are diluted 1:8 with the standard diluent contained in the kit. The assay is carried out according to manufacturers instructions and samples are analysed in duplicate. Data is analysed using Microsoft Excel 2003 and statistical analysis is carried out using Genstat 9th Edition.

[2] = Plasma protein binding (PPB), rapid equilibrium dialysis; type: in vitro ADME; conditions: male, Sprague Dawley, rat, 37° C., 6 h dialysis
Method: (§1) Method for Determination of Plasma Protein Binding (PPB) and Brain Tissue Binding (BTB) Compound Preparation • Compounds were dissolved in DMSO to give a 1 mg free base/mL solution, before further dilution to 100 μg/mL in acetonitrile (100 μL of 1 mg/mL into 900 μL acetonitrile). Matrix Preparation • On the morning of dialysis, control male Sprague Dawley rat plasma and brain, previously stored at −80° C. were thawed at room temperature. Plasma was checked for pH and if necessary adjusted to 7.4 with 1M HCl. Plasma was then centrifuged (2000 g for 10 min) and the brains diluted with 2 mL of Phosphate Buffered Saline (pH 7.4) per gram of tissue and homogenised using a mechanical homogeniser. An aliquot (10 μL) of the 100 μg/mL acetonitrile compound solution was then added to 1 mL of plasma and brain homogenate and vortex mixed to give a final compound concentration of 1 μg/mL in matrix. RED Plate Preparation • The Rapid Equilibrium Dialysis (RED) plate (Thermo Scientific) was prepared in accordance with the manufacturers guidelines i.e. the base plate was soaked in 20% (v/v) ethanol for 10 min and then rinsed twice with deionised water before being allowed to dry. The base plate was then filled with the appropriate number of disposable inserts (n=3 per compound) (Thermo Scientific) and matrix containing 1 μg/mL compound added into the matrix chamber of the inserts (200 μL) and an aliquot (350 μL) of PBS added to the buffer chamber. The plate was then covered with an adhesive and incubated in air at 37° C. for 6 h with 130 rpm agitation. Sampling • Following the 6 h incubation, the seal was removed and an aliquot (50 μL) taken from the PBS chambers and dispensed into Micronics tubes. Also, an aliquot (50 μL) was removed from the matrix chambers and placed into separate Micronics tubes. Plasma and brain was then matrix matched with 50 μL of drug-free PBS and the PBS samples with 50 μL of the corresponding drug-free matrix, to give equal final compositions and volumes […]. Sample Analysis • Samples were vortex mixed and an aliquot (300 μL) of acetonitrile containing 0.1% formic acid and 100 ng/mL of an appropriate internal standard added. Samples were then mixed and centrifuged (2000 g for 15 min) and an aliquot of the supernatant (100 μL) removed into a 96-deep well plate and diluted with an equal volume of water ready for analysis by LC-MS/MS. • The following data was obtained for the following compounds in the above assay (Table 5).

[3] = Brain tissue binding (BTB), rapid equilibrium dialysis; type: in vitro ADME, Sprague Dawley rat; conditions: 1 μg/mL in rat brain homogenate, 37° C., 6 h dialysis, mean of n = 3; for fraction unbound at 6 h, 1 μg/mL: male, Sprague Dawley, pH 7.4, read-out: Rat Brain fu
Method: as §1

[4] = pH 7.4, 1 μg/mL in rat plasma, mean of n = 3, read-out: Rat PPB (%) (converted)
[5] = pH 7.4, fraction unbound, 1 μg/mL in rat plasma, mean of n = 3, read-out: Rat Plasma fu

SMILES	reduction of Aβ40 in the CSF ([1]; 4 hours) [%]	reduction of Aβ40 in the brain ([1]; 4 hours) [%]	reduction of Aβ40 in the CSF ([1]; 6 hours) [%]	reduction of Aβ40 in the brain ([1]; 6 hours) [%]	fraction unbound at 6 h, 1 μg/mL [2, 4]	fraction unbound at 6 h, 1 μg/mL [2, 5]	Rat BTB (%) [3] [%]	fraction unbound at 6 h, 1 μg/mL [3]
COc1cnc(C(=O)Nc2ccc(F)c([C@]34CO[C@H](C(F)F)[C@H]3CSC(N)=N4)c2)cn1 [Example 3, N-(3-((4aS,5S,7aS)-2-amino-5-(difluoromethyl)-4a,5,7,7a-tetrahydro-4H-furo[3,4-d][1,3]thiazin-7a-yl)-4-fluorophenyl)-5-methoxypyrazine-2-carboxamide]	75	58	71	61	0.143	0.143	96.5	0.035
COc1cnc(C(=O)Nc2ccc(F)c([C@]34CO[C@H](CF)[C@H]3CSC(N)=N4)c2)cn1 [Example 2, N-(3-((4aS,5S,7aS)-2-amino-5-(fluoromethyl)-4a,5,7,7a-tetrahydro-4H-furo[3,4-d][1,3]thiazin-7a-yl)-4-fluorophenyl)-5-methoxypyrazine-2-carboxamide]	85	63	69	65	0.251	0.252	93.4	0.066
COc1cnc(C(=O)Nc2cc(F)c(F)c([C@]34CO[C@H](CF)[C@H]3CSC(N)=N4)c2)cn1 [Example 4, N-(3-((4aS,5S,7aS)-2-amino-5-(fluoromethyl)-4a,5,7,7a-tetrahydro-4H-furo[3,4-d][1,3]thiazin-7a-yl)-4,5-difluorophenyl)-5-methoxypyrazine-2-carboxamide]	67	51	63	42	0.13	0.13	97.9	0.021
